Legend:
O=C(O)CCCCCC(=O)O = test: purified protein; settings: BioW domain, CoASH 1 mM, ATP 1 mM, MgCl2 10 mM, pH 8, 30 °C
CaBioWF [1] = biological target: T1, CaBioWF (Corynebacterium amycolatum, UniProt E2MUP3); test: UV-Vis titration, PLP ketoenamine peak at […] nm, hyperbolic fit; assay type: binding
T1 construct: full-length natural di-domain fusion; synthetic gene in pET-28a, E. coli BL21(DE3); His tag removed by TEV; homodimer by SEC

CaBioWF [2] = settings: ATP 1 mM, CoASH 1 mM, MgCl2 5 mM, pH 8, 30 °C, 5 h; mutant mass 68567 Da printed, so tag probably kept

CaBioWF, sequence (DOC9544090_1 entry or part of it F192Y): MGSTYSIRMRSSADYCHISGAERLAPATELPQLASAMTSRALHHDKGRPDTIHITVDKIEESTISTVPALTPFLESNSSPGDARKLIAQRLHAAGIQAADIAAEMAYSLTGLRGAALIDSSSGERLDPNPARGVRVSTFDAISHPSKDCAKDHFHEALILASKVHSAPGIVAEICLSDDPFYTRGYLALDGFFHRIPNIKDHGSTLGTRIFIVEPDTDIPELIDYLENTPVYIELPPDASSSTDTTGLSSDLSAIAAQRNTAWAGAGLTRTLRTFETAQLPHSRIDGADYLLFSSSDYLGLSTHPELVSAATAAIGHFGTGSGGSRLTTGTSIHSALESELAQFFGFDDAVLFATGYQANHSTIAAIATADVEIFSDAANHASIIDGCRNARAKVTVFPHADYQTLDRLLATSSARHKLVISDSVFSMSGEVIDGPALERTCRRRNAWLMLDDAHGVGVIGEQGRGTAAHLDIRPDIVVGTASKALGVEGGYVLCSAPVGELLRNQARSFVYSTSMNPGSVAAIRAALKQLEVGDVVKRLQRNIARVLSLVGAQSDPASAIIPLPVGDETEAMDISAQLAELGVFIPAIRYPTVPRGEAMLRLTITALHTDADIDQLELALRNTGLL

## CaBioWF (Corynebacterium amycolatum SK46)
O=C(O)CCCCCC(=O)O
  Km: 58.6 ± 3 µM
  kcat: 0.21 s⁻¹

## NCC(=O)O [Gly]
CaBioWF [1]
  Kd: 16.1 ± 1.95 mM

## C[C@H](N)C(=O)O [ʟ‐Ala]
CaBioWF [1]
  Kd: 1.83 ± 0.25 mM

## O=C(O)CCCCCC(=O)O [DC7, pimelic acid]
CaBioWF [2]
  HPLC of acyl-CoA product, 260 nm: acyl‐CoA product formation was only observed for the natural DC7 pimelic acid substrate

Source: PMC9544090, “BioWF: A Naturally‐Fused, Di‐Domain Biocatalyst from Biotin Biosynthesis Displays an Unexpectedly Broad Substrate Scope” (Chembiochem, 2022)
